Assay: Protective ability against MPP^+ induced apoptosis of neurons (WST-1 cell viability)
Type: cell-based
Conditions: human, MPP^+ 1 mM alone, read-out: Cell viability % compared to control
Protocol: The following experiment was performed to evaluate the protective ability against apoptosis of neurons caused by MPP^+, a Parkinson's disease-inducing toxicity, in differentiated SH-Sy5y cells (brain neurons) for the Weissella cibaria strains shown in Table 2 above.
Thereafter, the existing medium was removed and replaced with 0.5% fetal bovine serum DMEM medium to which a sample was added at various concentrations. After 4 hours, the cells were treated with MPP^+ neurotoxicity at a concentration of 1 mM and cultured for an additional 44 hours. Thereafter, the medium was treated with the WST-1 solution and cultured for 2 hours to induce a reduction reaction, and then the absorbance was measured at 450 nm using an ELISA microplate reader.

C[n+]1ccc(-c2ccccc2)cc1 [MPP^+, 1-methyl-4-phenylpyridinium iodide]
viability at 44 h, 1 mM: 53%
